Data taken from patent US20020187514A1 (priority 1999, published 2002).
Counter-ions that a name gives are not always drawn.

Experiments:
[1] = biological target: Imidazoline, I2, central; assay: Imidazoline, I2, central; [3H]2-BFI; assay type: binding; conditions: reference compound, QA/QC; read-out: Ref Kj
[2] = biological target: Melatonin; assay: Melatonin; [125I]-2-Iodomelatonin; assay type: binding; conditions: reference compound, QA/QC; read-out: Ref Kj
[3] = biological target: Imidazoline, I1; assay: Imidazoline, I1; [125I]-Clonidine; assay type: binding; conditions: reference compound, QA/QC; read-out: Ref Kj
[4] = biological target: Histamine, H3; assay: Histamine, H3; [3H]N-a-MeHistamine; assay type: binding; conditions: reference compound, QA/QC; read-out: Ref Kj
[5] = biological target: Glucocorticoid (UniProt P06536); conditions: read-out: Ref Kj
[6] = biological target: T1, Histamine, H1 (Bos taurus, UniProt P30546); assay: Histamine, H1; [3H]Pyrilamine; assay type: binding
T1 construct: no other source notation after assay name denotes animal cell or animal tissue source; from tissue; host or cells: animal cell or animal tissue, not specified
T1 sequence (P30546 whole entry): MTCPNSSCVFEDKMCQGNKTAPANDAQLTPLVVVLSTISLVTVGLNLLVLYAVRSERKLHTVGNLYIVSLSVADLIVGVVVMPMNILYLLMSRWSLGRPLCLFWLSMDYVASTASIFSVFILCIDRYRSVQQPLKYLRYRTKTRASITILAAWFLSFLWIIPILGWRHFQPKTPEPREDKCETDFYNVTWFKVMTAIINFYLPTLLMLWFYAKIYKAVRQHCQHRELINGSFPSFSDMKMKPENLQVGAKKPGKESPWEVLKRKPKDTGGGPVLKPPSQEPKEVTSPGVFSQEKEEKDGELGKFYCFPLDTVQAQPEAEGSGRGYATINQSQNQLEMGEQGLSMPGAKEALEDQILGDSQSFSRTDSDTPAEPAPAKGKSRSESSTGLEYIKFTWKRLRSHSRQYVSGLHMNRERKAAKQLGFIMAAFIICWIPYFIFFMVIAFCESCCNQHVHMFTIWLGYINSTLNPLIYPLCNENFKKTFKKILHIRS

Chain of Glucocorticoid (P06536 whole entry): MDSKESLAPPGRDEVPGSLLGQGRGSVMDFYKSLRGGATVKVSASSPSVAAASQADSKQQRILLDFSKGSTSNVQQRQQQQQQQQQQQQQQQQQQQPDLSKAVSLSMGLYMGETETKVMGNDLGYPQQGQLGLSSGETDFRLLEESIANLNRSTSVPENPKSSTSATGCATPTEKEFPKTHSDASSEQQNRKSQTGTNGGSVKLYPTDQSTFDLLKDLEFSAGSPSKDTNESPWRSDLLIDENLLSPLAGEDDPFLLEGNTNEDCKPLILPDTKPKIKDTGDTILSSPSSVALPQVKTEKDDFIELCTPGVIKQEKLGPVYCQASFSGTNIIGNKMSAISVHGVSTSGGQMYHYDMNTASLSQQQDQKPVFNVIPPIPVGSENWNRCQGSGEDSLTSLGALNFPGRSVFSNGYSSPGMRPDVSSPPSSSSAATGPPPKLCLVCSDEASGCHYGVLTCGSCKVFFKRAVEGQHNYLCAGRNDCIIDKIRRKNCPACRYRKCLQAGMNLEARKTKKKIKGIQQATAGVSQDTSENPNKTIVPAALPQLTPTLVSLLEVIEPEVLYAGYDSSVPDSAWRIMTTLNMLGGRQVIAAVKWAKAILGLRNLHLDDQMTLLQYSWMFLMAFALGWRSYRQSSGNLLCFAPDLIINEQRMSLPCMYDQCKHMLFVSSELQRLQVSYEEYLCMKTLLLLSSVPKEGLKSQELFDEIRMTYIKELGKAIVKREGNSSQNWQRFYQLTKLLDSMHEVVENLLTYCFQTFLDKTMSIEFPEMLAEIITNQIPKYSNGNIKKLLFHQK

SMILES: c1ccc2oc(C3=NCCN3)cc2c1 [2-BFI]
- Ki [1]: 0.054 nM

SMILES: Clc1cc(I)cc(Cl)c1NC1=NCCN1 [Iodoclonidine]
- Ki [3]: 7.89 nM

SMILES: CNCCc1cnc[nH]1 [N-a-Methylhistamine (NAMH), N-a-Methylhistamine]
- Ki [4]: 1.31 nM

SMILES: C[C@]12C=CC(=O)C=C1CC[C@H]1[C@@H]3C[C@@H](O)[C@](O)(C(=O)CO)[C@@]3(C)C[C@H](O)[C@@]12F [Triamcinolone]
- Ki [5]: 1.74 nM

SMILES: Cc1ccc(/C(=C\CN2CCCC2)c2ccccn2)cc1 [Triprolidine HCl]
- Ki [6]: 3.6 nM
